Patent publication US12458630B2, “Combination therapy for cancer” (The Regents of the University of California, priority 2020, dated 2025)
“Also recorded” adds a separate entry of the source.

How the values were obtained:
[1] = test system: MIA PaCa-2 cells; experiment: TMR-DEX macropinosome uptake assay; type: cell-based, human
Experimental: Cell imaging. Immunostaining was performed as described^44. Cells were cultured on coverslips and fixed in 4% PFA for 10 min at room temperature. After washing twice in PBS, cells were incubated in PBS containing 10% FBS to block nonspecific sites of antibody adsorption. The cells were then incubated with the appropriate primary antibodies (diluted 1:100) and secondary antibodies (diluted 1:500) in PBS containing 10% FBS with or without 0.1% saponin. For cell macropinosome visualization, 24 hrs after seeding, the cells were serum starved for 18 hrs. Macropinosomes were marked using a high-molecular-mass (70 KD) TMR-Dextran (Invitrogen)-uptake assay, wherein TMR-DEX was added to serum-free medium at a final concentration of 1 mg/ml for 30 min at 37° C. At the end of the incubation period, the cells were rinsed five times in cold PBS and immediately fixed in 4% PFA. For tissue macropinosome visualization^45, fresh pancreata were cut into pieces with an approximate 5-mm cuboidal shape. A tissue section was placed in a 24-well plate and injected 150 μL of 10 mg/ml TMR-DEX solution directly into the tissue piece. Another 250 μL of diluted TMR-DEX solution were added to the well to immerse the tissue section. The plate was incubated in the dark for 15 min at room temperature. Then the tissue section was rinsed twice in PBS before embedding in O.C.T. compound in a prelabeled cryomold. Specimens were frozen on dry ice and stored at −80° C. for further processing. Immunostaining was performed as described above. Images were captured using a TCS SPE Leica confocal microscope (Leica, Germany).
In some embodiments, Immunostaining was performed as described (Su et al., 2017). Cells were cultured on coverslips and fixed in 4% PFA for 10 min at room temperature or methanol for 10 min at −20° C. After washing twice in PBS, cells were incubated in PBS containing 10% FBS to block nonspecific sites of antibody adsorption. The cells were then incubated with the appropriate primary antibodies (diluted 1:100) and secondary antibodies (diluted 1:500) in PBS containing 10% FBS with or without 0.1% saponin. For cell macropinosome visualization, 24 hrs after seeding, the cells were serum starved for 18 hrs. Macropinosomes were marked using a high-molecular-mass (70 KDa) TMR-DEX (Invitrogen)-uptake assay, wherein TMR-DEX was added to serum-free medium at a final concentration of 1 mg/ml for 30 min at 37° C. At the end of the incubation period, the cells were rinsed five times in cold PBS and immediately fixed in 4% PFA. For tissue macropinosome visualization (Lee et al., 2019), fresh pancreata were cut into pieces with an approximate 5-mm cuboidal shape. Tissue fragments were placed in a 24-well plate and injected with 150 μL of 10 mg/ml TMR-DEX solution. Another 250 μL of diluted TMR-DEX solution were added to the well to immerse the tissue fragment. The plate was incubated in the dark for 15 min at room temperature. Then the tissue fragments were rinsed twice in PBS before embedding in O.C.T. compound in a prelabeled cryomold. Specimens were frozen on dry ice and stored at −80° C. for further processing. Immunostaining was performed as described above. Images were captured using a TCS SPE Leica confocal microscope (Leica, Germany).
Quantification and statistics. To quantify the number of LC3 puncta, a total of 30 cells were recorded and analyzed using the LAS X measurement program on the TCS SPE Leica. Macropinosomes were quantified by using the ‘Analyze Particles’ feature in ImageJ (National Institutes of Health). Macropinocytic uptake index was computed by determining the total macropinosome area in relation to the total cell area for each field and then by determining the average across all the fields (at least 6 fields). These measurements were done on randomly-selected fields of view. Two-tailed unpaired Student's t test was performed for statistical analysis using GraphPad Prism software. […]

[2] = test system: 1444 primary human PDAC cells; experiment: TMR-DEX macropinosome uptake assay; type: cell-based; conditions: IKKα^Δ 1444 cells, 75 μM EIPA
Experimental: (§1) Cell imaging. Immunostaining was performed as described^44. Cells were cultured on coverslips and fixed in 4% PFA for 10 min at room temperature. After washing twice in PBS, cells were incubated in PBS containing 10% FBS to block nonspecific sites of antibody adsorption. The cells were then incubated with the appropriate primary antibodies (diluted 1:100) and secondary antibodies (diluted 1:500) in PBS containing 10% FBS with or without 0.1% saponin. For cell macropinosome visualization, 24 hrs after seeding, the cells were serum starved for 18 hrs. Macropinosomes were marked using a high-molecular-mass (70 KD) TMR-Dextran (Invitrogen)-uptake assay, wherein TMR-DEX was added to serum-free medium at a final concentration of 1 mg/ml for 30 min at 37° C. At the end of the incubation period, the cells were rinsed five times in cold PBS and immediately fixed in 4% PFA. For tissue macropinosome visualization^45, fresh pancreata were cut into pieces with an approximate 5-mm cuboidal shape. […]
(§2) Quantification and statistics. To quantify the number of LC3 puncta, a total of 30 cells were recorded and analyzed using the LAS X measurement program on the TCS SPE Leica. Macropinosomes were quantified by using the ‘Analyze Particles’ feature in ImageJ (National Institutes of Health). […]

[3] = test system: KC6141 cells; experiment: TMR-DEX macropinosome uptake assay; type: cell-based, mouse; conditions: WT and IKKα-KD KC6141 cells
Experimental: as §1, §2

[4] = test system: human PDAC 1334 tumors; experiment: s.c. tumors in nude mice; type: in vivo, mouse; conditions: EIPA 7.5 mg/kg, MRT68921 10 mg/kg, 15 days
Experimental: (§3) In some embodiments, to evaluate the effects of MP on tumor growth or survival in the autochthonous model, Kras^G12D;Ikkα^ΔPEC mice, at 4 weeks of age, were treated with vehicle or 10 mg/kg EIPA (Sigma) by i.p. injection every other day for 1 month. After that, surgically removed pancreata were weighed and used for further analysis and other mice were continued to maintain for survival. To evaluate the effects of MP on heterotopic xenografts, female homozygous BALB/c Nu/Nu nude mice were injected subcutaneously (s.c.) in both flanks at 7 weeks of age with 10^6 parental and IKKα^Δ MIA PaCa-2 cells or 1334 and 1444 cells mixed at a 1:1 dilution with BD Matrigel (BD Biosciences) in a total volume of 100 μl. Mice were treated with vehicle (DMSO in PBS), EIPA (7.5 mg/kg), MRT68921 (10 mg/kg) or MRT68921 and EIPA for 15 days when tumors attained an average volume of 50-100 mm^3. Volumes (1/2×(width^2×length)) of s.c. tumors were calculated on the basis of measurements using digital calipers after 15 days of treatment. To evaluate the combination effects of autophagy and MP inhibition on tumor growth, C57BL/6 mice were injected s.c. at 7 weeks of age with 10^6 parental, Ikkα KD, Nhe1 KD or Ikkα+Nhe1 DKD KC6141 cells in a total volume of 100 μl. Mice were treated with or without vehicle, EIPA (7.5 mg/kg), MRT68921 (10 mg/kg), or EIPA and MRT68921 for 21 days when tumors attained an average volume of 50-100 mm^3. Tumor volumes were calculated as above.

[5] = test system: human PDAC 1444 tumors; experiment: s.c. tumors in nude mice; type: in vivo, mouse; conditions: EIPA 7.5 mg/kg, MRT68921 10 mg/kg, 15 days
Experimental: as §3

[6] = test system: MIA PaCa-2 cells; experiment: LC3 puncta / LC3-LAMP1 immunofluorescence; type: cell-based, human; conditions: MIA PaCa-2 cells +/- MRT68921
Experimental: as §1, §2

Compound | macropinosome formation (TMR-DEX labeling) ([1]; parental and IKKα-KO (IKKα^Δ) MIA PaCa-2 cells, 75 μM EIPA) | macropinocytosis (TMR-DEX labeling) [2] | MP (macropinosomes) [3] | tumor growth [4] | tumor growth [5] | relative macropinocytic uptake (macropinosomes) ([1]; MIA PaCa-2 cells +/- MRT68921) | autophagosome (LC3) puncta per cell [6]
CCN(c1nc(N)c(C(=O)N=C(N)N)nc1Cl)C(C)C [EIPA, 5-(N-ethyl-N-isopropyl) amiloride] | blocks macropinosome formation; also recorded: inhibited; also recorded: suppressed | inhibited; also recorded: suppressed | inhibited MP | sensitive to EIPA | small effect |  | 
CN1CCc2cc(Nc3ncc(C4CC4)c(NCCCNC(=O)C4CCC4)n3)ccc2C1 [MRT68921] |  |  |  | insensitive to MRT68921 | small effect | more macropinosomes; also recorded: increased macropinosomes; also recorded: enhanced | less autophagosomes; also recorded: reduced autophagosomes; also recorded: significantly abolished
